Measurements: paper PMC5428509, “Irreversible inhibition of BTK kinase by a novel highly selective inhibitor CHMFL-BTK-11 suppresses inflammatory response in rheumatoid arthritis model” (Scientific Reports, 2017)

Key:
Test in all cases: biochemical
Design in all cases: KinomeScan competition binding panel (DiscoveRx), percent of control at 1 uM
Details in all cases: read-out: Percent Control
GRK1 = GRK1 (Homo sapiens, UniProt Q15835)
In short: (§1)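 Selectivity profiled across 456 kinases/mutants by KinomeScan binding technology.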

NEK4 = NEK4 (Homo sapiens, UniProt P51957)
In short: as §1

CAMK4 = CAMK4 (Homo sapiens, UniProt Q16566)
In short: as §1

NEK2 = NEK2 (Homo sapiens, UniProt P51955)
Sequence of NEK2 (P51955 whole entry): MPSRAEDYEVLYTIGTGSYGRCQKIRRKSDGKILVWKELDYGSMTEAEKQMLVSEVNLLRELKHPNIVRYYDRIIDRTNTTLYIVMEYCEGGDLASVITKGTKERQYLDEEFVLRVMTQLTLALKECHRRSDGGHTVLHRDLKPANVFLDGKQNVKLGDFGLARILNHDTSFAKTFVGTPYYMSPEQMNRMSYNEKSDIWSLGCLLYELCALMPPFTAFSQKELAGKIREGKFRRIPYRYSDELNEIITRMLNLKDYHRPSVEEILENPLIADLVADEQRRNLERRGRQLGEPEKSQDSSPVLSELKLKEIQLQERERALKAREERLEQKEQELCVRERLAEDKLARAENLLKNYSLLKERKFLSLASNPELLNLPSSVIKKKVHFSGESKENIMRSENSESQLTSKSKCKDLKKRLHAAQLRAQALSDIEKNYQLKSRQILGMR
In short: as §1

MUSK = MUSK (Homo sapiens, UniProt O15146)
In short: as §1

FGFR4 = FGFR4 (Homo sapiens, UniProt P22455)
In short: as §1

AMPK-alpha2 = molecular target: T1, AMPK-alpha2 (Homo sapiens, UniProt P54646)
T1 construct: gene PRKAA2
In short: as §1

SNRK = SNRK (Homo sapiens, UniProt Q9NRH2)
In short: as §1

ACVRL1 = ACVRL1 (Homo sapiens, UniProt P37023)
In short: as §1

[1] = molecular target: T2, ABL1(E255K)-phosphorylated (Homo sapiens, UniProt P00519, E255K)
T2 construct: phosphorylated
T2 sequence (P00519 whole entry E255K): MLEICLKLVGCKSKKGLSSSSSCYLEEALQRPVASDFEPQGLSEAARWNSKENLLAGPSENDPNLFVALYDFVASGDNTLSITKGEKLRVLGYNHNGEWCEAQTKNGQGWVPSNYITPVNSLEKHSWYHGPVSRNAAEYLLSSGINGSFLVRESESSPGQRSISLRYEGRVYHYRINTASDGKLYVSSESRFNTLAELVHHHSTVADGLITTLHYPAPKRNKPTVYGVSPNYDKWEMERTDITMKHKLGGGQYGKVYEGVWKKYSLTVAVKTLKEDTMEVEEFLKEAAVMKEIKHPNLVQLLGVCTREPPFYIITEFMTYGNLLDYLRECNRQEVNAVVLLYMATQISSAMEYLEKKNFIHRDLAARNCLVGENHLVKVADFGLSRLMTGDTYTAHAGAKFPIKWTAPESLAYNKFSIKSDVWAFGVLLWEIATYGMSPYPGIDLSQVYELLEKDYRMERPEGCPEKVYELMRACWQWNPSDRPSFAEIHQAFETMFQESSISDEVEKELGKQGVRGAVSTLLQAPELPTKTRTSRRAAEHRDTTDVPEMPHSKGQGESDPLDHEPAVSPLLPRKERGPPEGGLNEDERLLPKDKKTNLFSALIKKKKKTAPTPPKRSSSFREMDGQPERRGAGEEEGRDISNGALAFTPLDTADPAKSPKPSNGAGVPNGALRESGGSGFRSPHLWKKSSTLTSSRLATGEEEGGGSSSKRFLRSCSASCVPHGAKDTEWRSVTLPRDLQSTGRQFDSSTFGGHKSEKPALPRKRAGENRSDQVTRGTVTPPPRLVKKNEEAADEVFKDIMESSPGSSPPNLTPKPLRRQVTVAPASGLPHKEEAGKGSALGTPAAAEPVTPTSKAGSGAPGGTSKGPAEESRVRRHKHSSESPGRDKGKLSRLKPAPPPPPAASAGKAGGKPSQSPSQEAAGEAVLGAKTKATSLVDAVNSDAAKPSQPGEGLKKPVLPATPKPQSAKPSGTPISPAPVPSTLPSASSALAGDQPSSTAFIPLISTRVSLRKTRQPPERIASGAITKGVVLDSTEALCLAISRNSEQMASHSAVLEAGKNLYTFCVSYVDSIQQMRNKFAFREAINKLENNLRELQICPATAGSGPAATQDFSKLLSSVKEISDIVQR
In short: as §1

EGFR(L858R,T790M) = EGFR(L858R,T790M) (Homo sapiens, UniProt P00533, L858R/T790M)
In short: as §1

[2] = molecular target: T3, ABL1(F317L)-nonphosphorylated (Homo sapiens, UniProt P00519, F317L)
T3 construct: nonphosphorylated
T3 sequence (P00519 whole entry F317L): as the sequence (P00519 whole entry E255K) above, with K255E, F317L counted along it
In short: as §1

DCAMKL3 = molecular target: T4, DCAMKL3 (Homo sapiens, UniProt Q9C098)
T4 construct: gene DCLK3
In short: as §1

NEK1 = NEK1 (Homo sapiens, UniProt Q96PY6)
Sequence of NEK1 (Q96PY6 whole entry): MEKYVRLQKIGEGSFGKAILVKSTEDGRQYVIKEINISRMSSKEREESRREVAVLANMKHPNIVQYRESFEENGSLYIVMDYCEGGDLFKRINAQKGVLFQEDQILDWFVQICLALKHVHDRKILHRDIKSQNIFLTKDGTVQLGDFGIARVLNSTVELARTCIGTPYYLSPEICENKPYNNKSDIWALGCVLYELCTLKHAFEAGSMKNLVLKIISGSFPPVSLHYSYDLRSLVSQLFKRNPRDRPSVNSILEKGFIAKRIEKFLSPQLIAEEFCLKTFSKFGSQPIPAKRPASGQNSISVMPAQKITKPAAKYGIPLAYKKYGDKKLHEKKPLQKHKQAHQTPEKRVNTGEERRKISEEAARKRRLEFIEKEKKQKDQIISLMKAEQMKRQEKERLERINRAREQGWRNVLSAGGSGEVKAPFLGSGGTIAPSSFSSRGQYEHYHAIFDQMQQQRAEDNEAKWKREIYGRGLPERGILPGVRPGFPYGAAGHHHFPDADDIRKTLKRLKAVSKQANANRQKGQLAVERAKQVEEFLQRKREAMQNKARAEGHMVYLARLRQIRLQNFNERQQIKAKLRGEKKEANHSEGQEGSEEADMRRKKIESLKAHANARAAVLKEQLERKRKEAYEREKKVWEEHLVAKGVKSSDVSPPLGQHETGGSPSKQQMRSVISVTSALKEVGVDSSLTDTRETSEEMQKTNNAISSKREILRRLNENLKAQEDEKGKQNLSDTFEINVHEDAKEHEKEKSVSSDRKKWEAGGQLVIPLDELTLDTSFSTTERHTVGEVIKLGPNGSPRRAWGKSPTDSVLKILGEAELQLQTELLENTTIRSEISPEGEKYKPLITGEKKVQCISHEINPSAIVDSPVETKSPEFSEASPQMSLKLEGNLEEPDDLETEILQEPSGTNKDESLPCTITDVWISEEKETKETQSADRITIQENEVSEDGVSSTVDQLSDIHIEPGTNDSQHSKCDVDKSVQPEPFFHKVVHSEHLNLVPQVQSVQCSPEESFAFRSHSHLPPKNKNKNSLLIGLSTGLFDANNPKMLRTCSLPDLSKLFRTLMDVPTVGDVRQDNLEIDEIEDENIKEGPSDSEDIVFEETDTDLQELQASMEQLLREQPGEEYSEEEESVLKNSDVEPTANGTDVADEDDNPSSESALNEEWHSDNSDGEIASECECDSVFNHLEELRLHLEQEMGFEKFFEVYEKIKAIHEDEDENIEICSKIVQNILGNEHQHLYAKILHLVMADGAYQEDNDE
In short: as §1

MINK = molecular target: T5, MINK (Homo sapiens, UniProt Q8N4C8)
T5 construct: gene MINK1
T5 sequence (Q8N4C8 whole entry): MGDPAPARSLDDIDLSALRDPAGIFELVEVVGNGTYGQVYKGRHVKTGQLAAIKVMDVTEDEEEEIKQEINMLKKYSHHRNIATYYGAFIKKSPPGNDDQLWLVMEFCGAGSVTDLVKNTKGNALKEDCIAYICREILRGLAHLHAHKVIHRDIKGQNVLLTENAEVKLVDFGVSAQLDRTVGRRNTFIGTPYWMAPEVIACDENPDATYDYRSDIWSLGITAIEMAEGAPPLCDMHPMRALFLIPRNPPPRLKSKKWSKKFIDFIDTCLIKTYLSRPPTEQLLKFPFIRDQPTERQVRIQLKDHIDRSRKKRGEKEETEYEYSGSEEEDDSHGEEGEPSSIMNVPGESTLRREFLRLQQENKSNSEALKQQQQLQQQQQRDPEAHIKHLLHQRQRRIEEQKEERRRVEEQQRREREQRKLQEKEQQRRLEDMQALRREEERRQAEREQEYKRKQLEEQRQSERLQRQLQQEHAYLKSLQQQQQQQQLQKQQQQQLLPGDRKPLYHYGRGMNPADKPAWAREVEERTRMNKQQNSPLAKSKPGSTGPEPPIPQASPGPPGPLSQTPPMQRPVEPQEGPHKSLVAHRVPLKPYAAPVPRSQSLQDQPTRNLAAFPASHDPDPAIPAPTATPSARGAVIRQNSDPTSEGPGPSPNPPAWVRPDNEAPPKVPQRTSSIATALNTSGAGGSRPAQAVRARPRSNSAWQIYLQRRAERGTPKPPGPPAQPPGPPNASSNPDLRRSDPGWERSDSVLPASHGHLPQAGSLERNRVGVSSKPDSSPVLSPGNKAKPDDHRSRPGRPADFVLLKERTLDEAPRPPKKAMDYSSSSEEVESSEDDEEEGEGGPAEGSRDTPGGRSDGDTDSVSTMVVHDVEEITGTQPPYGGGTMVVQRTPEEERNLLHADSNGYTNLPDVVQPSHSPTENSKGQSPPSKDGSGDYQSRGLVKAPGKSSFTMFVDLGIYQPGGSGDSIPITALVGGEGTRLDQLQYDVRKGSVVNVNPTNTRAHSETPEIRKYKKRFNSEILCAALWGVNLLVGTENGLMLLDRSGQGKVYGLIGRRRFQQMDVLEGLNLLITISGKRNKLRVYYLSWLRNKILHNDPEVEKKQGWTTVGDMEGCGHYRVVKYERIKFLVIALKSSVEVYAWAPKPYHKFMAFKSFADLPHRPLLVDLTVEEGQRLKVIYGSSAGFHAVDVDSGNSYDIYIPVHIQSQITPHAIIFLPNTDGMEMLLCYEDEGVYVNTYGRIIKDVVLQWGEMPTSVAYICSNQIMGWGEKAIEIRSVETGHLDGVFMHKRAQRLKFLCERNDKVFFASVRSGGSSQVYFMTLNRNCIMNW
In short: as §1

TAOK3 = TAOK3 (Homo sapiens, UniProt Q9H2K8)
In short: as §1

FAK = molecular target: T6, FAK (Homo sapiens, UniProt Q05397)
T6 construct: gene PTK2
In short: as §1

[3] = molecular target: T7, ABL1(F317I)-phosphorylated (Homo sapiens, UniProt P00519, F317I)
T7 construct: phosphorylated
In short: as §1

FLT4 = FLT4 (Homo sapiens, UniProt P35916)
In short: as §1

ALK(L1196M) = ALK(L1196M) (Homo sapiens, UniProt Q9UM73, L1196M)
In short: as §1

PIK3CA(E545K) = PIK3CA(E545K) (Homo sapiens, UniProt P42336, E545K)
In short: as §1

PAK1 = PAK1 (Homo sapiens, UniProt Q13153)
In short: as §1

CSNK1G1 = CSNK1G1 (Homo sapiens, UniProt Q9HCP0)
Sequence of CSNK1G1 (Q9HCP0 whole entry): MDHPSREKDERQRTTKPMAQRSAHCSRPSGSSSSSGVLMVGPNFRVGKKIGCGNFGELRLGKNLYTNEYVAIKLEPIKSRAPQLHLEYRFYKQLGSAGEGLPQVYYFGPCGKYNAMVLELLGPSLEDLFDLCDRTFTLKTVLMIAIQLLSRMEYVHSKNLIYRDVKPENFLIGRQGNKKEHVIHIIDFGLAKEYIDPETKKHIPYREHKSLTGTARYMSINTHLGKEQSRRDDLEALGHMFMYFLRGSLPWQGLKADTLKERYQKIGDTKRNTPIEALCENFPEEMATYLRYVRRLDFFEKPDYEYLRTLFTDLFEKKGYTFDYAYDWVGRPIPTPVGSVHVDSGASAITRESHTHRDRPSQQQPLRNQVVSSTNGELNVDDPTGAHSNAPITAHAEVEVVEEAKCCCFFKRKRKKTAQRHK
In short: as §1

BRK = molecular target: T8, BRK (Homo sapiens, UniProt Q13882)
T8 construct: gene PTK6
T8 sequence (Q13882 whole entry): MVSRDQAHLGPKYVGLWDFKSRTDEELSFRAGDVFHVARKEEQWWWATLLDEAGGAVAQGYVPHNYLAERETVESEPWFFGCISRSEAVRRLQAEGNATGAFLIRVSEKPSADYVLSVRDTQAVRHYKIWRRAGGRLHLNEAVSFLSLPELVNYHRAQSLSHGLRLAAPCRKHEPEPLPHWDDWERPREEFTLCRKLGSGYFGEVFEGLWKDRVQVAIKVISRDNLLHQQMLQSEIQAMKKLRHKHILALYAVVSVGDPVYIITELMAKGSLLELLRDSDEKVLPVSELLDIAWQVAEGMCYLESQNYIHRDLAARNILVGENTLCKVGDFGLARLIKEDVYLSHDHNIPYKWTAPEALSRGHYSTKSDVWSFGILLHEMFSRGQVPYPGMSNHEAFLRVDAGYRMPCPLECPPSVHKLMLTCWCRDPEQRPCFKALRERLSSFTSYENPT
In short: as §1

ERK4 = molecular target: T9, ERK4 (Homo sapiens, UniProt P31152)
T9 construct: gene MAPK4
In short: as §1

C=CC(=O)Nc1cc(-n2c(=O)ccc3cnc4ccc(-n5cccn5)cc4c32)ccc1C [CHMFL-BTK-11]
remaining binding at 1 µM (GRK1): 71% | remaining binding at 1 µM (NEK4): 100% | remaining binding at 1 µM (CAMK4): 91% | remaining binding at 1 µM (NEK2): 100% | remaining binding at 1 µM (MUSK): 100% | remaining binding at 1 µM (FGFR4): 100% | remaining binding at 1 µM (AMPK-alpha2): 86% | remaining binding at 1 µM (SNRK): 94% | remaining binding at 1 µM (ACVRL1): 90% | remaining binding at 1 µM [1]: 92% | remaining binding at 1 µM (EGFR(L858R,T790M)): 42% | remaining binding at 1 µM [2]: 96% | remaining binding at 1 µM (DCAMKL3): 88% | remaining binding at 1 µM (NEK1): 82% | remaining binding at 1 µM (MINK): 64% | remaining binding at 1 µM (TAOK3): 93% | remaining binding at 1 µM (FAK): 100% | remaining binding at 1 µM [3]: 100% | remaining binding at 1 µM (FLT4): 100% | remaining binding at 1 µM (ALK(L1196M)): 88% | remaining binding at 1 µM (PIK3CA(E545K)): 69% | remaining binding at 1 µM (PAK1): 100% | remaining binding at 1 µM (CSNK1G1): 100% | remaining binding at 1 µM (BRK): 100% | remaining binding at 1 µM (ERK4): 96%
